# Results published in PubChem BioAssay AID2060503 (Molecular Pharmacology Branch, DTP, NCI, 2025).
# Test system: 817829-284-R-J1-PDC complex spheroids, viability
# Test: Anticancer human tumor 817829-284-R-J1-PDC patient-derived colon adenocarcinoma cell line growth inhibition [GQUAD]
# Settings: for IC50: curve of first compound; for viability, T/C: stronger effect = lower value
# Summary of the method: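 Multi-cell-type spheroids of tumor cells with HUVEC and mesenchymal stem cells, treated with drug combinations. Concentrations descend in half-log steps from near clinical Cmax, or from 10 microM where Cmax is unknown; viability read-out.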
# [1] = second compound 0.0316 µM, first compound 0.0316 µM
# [2] = second compound 0.0316 µM, first compound 0.316 µM
# [3] = second compound 0.1 µM, first compound 0.0316 µM
# [4] = second compound 0.1 µM, first compound 0.316 µM
# [5] = second compound 0.316 µM, first compound 0.0316 µM
# [6] = second compound 0.316 µM, first compound 0.316 µM
# [7] = second compound 1 µM, first compound 0.0316 µM
# [8] = second compound 1 µM, first compound 0.316 µM
# [9] = second compound 3.16 µM, first compound 0.0316 µM
# [10] = second compound 3.16 µM, first compound 0.316 µM
# [11] = second compound 10 µM, first compound 0.0316 µM
# [12] = second compound 10 µM, first compound 0.316 µM
# 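Note: spheroids exposed to agents for 7 days before readout.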
# 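Throughout, for viability, T/C: percent viability relative to DMSO vehicle control taken as 100%.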
smiles,measurement,setting,value
COc1ncnc(C2CC2)c1-c1ncc2cnn(Cc3ccc(-c4nc(C(F)(F)F)cn4C(C)C)cc3)c2n1 + CN(C)c1ccc(Nc2c3ccc(NC(=O)CCN4CCCC4)cc3nc3cc(NC(=O)CCN4CCCC4)ccc23)cc1,IC50,second compound 0.0316 µM,> 10000 nM
same,IC50,second compound 0.1 µM,> 10000 nM
same,IC50,second compound 0.316 µM,> 10000 nM
same,IC50,second compound 1 µM,> 10000 nM
same,IC50,second compound 3.16 µM,> 10000 nM
same,IC50,second compound 10 µM,4430 nM
same,"viability, T/C",[1],102%
same,"viability, T/C","second compound 0.0316 µM, first compound 0.1 µM",119%
same,"viability, T/C",[2],106%
same,"viability, T/C","second compound 0.0316 µM, first compound 1 µM",107%
same,"viability, T/C","second compound 0.0316 µM, first compound 3.16 µM",108%
same,"viability, T/C","second compound 0.0316 µM, first compound 10 µM",115%
same,"viability, T/C",[3],100%
same,"viability, T/C","second compound 0.1 µM, first compound 0.1 µM",123%
same,"viability, T/C",[4],104%
same,"viability, T/C","second compound 0.1 µM, first compound 1 µM",105%
same,"viability, T/C","second compound 0.1 µM, first compound 3.16 µM",111%
same,"viability, T/C","second compound 0.1 µM, first compound 10 µM",114%
same,"viability, T/C",[5],100%
same,"viability, T/C","second compound 0.316 µM, first compound 0.1 µM",118%
same,"viability, T/C",[6],102%
same,"viability, T/C","second compound 0.316 µM, first compound 1 µM",107%
same,"viability, T/C","second compound 0.316 µM, first compound 3.16 µM",105%
same,"viability, T/C","second compound 0.316 µM, first compound 10 µM",119%
same,"viability, T/C",[7],107%
same,"viability, T/C","second compound 1 µM, first compound 0.1 µM",112%
same,"viability, T/C",[8],115%
same,"viability, T/C","second compound 1 µM, first compound 1 µM",104%
same,"viability, T/C","second compound 1 µM, first compound 3.16 µM",104%
same,"viability, T/C","second compound 1 µM, first compound 10 µM",114%
same,"viability, T/C",[9],106%
same,"viability, T/C","second compound 3.16 µM, first compound 0.1 µM",103%
same,"viability, T/C",[10],100%
same,"viability, T/C","second compound 3.16 µM, first compound 1 µM",93.2%
same,"viability, T/C","second compound 3.16 µM, first compound 3.16 µM",103%
same,"viability, T/C","second compound 3.16 µM, first compound 10 µM",97.5%
same,"viability, T/C",[11],114%
same,"viability, T/C","second compound 10 µM, first compound 0.1 µM",108%
same,"viability, T/C",[12],91.6%
same,"viability, T/C","second compound 10 µM, first compound 1 µM",95.3%
same,"viability, T/C","second compound 10 µM, first compound 3.16 µM",53.8%
same,"viability, T/C","second compound 10 µM, first compound 10 µM",31.1%
Cc1[nH]c2ccccc2c1CCNCc1ccc(/C=C/C(=O)NO)cc1 + CN(C)c1ccc(Nc2c3ccc(NC(=O)CCN4CCCC4)cc3nc3cc(NC(=O)CCN4CCCC4)ccc23)cc1,IC50,second compound 0.0316 µM,52.1 nM
same,IC50,second compound 0.1 µM,45.7 nM
same,IC50,second compound 0.316 µM,47.1 nM
same,IC50,second compound 1 µM,53.3 nM
same,IC50,second compound 3.16 µM,47.7 nM
same,IC50,second compound 10 µM,19.1 nM
same,"viability, T/C","second compound 0.0316 µM, first compound 0.000999 µM",108%
same,"viability, T/C","second compound 0.0316 µM, first compound 0.00316 µM",99.3%
same,"viability, T/C","second compound 0.0316 µM, first compound 0.00999 µM",126%
same,"viability, T/C",[1],86.1%
same,"viability, T/C","second compound 0.0316 µM, first compound 0.0999 µM",3.89%
same,"viability, T/C",[2],0.19%
same,"viability, T/C","second compound 0.1 µM, first compound 0.000999 µM",89.8%
same,"viability, T/C","second compound 0.1 µM, first compound 0.00316 µM",110%
same,"viability, T/C","second compound 0.1 µM, first compound 0.00999 µM",109%
same,"viability, T/C",[3],72.3%
same,"viability, T/C","second compound 0.1 µM, first compound 0.0999 µM",3.79%
same,"viability, T/C",[4],0.12%
same,"viability, T/C","second compound 0.316 µM, first compound 0.000999 µM",94.1%
same,"viability, T/C","second compound 0.316 µM, first compound 0.00316 µM",115%
same,"viability, T/C","second compound 0.316 µM, first compound 0.00999 µM",117%
same,"viability, T/C",[5],75.3%
same,"viability, T/C","second compound 0.316 µM, first compound 0.0999 µM",3.89%
same,"viability, T/C",[6],0.11%
same,"viability, T/C","second compound 1 µM, first compound 0.000999 µM",104%
same,"viability, T/C","second compound 1 µM, first compound 0.00316 µM",100%
same,"viability, T/C","second compound 1 µM, first compound 0.00999 µM",126%
same,"viability, T/C",[7],88.4%
same,"viability, T/C","second compound 1 µM, first compound 0.0999 µM",4.37%
same,"viability, T/C",[8],0.14%
same,"viability, T/C","second compound 3.16 µM, first compound 0.000999 µM",96.1%
same,"viability, T/C","second compound 3.16 µM, first compound 0.00316 µM",99.2%
same,"viability, T/C","second compound 3.16 µM, first compound 0.00999 µM",119%
same,"viability, T/C",[9],76.1%
same,"viability, T/C","second compound 3.16 µM, first compound 0.0999 µM",5.12%
same,"viability, T/C",[10],0.15%
same,"viability, T/C","second compound 10 µM, first compound 0.000999 µM",99.2%
same,"viability, T/C","second compound 10 µM, first compound 0.00316 µM",113%
same,"viability, T/C","second compound 10 µM, first compound 0.00999 µM",78.6%
same,"viability, T/C",[11],27.2%
same,"viability, T/C","second compound 10 µM, first compound 0.0999 µM",1.95%
same,"viability, T/C",[12],0.22%
